Several values for one entry are separate records, joined by “and”; a condition that tells them apart may be missing. Identical values can stand only once.
System: 186277-243-T-J2-PDC complex spheroid growth, % test/control
Test: Anticancer human tumor 186277-243-T-J2-PDC patient-derived colon adenocarcinoma cell line growth inhibition [Asc]
Settings: for viability, T/C: stronger effect = lower value; active = viability on the fitted dose curve at most 10% of control; inactive = the rest
Outline: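 Complex spheroids combining tumor cells with HUVEC endothelial cells and human MSCs, at 37 degrees C, 5% CO2; agents tested alone or combined, half-log dilutions from at or near clinical Cmax, or 10 microM if Cmax unknown.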

[1] = curve of first compound, second compound 0.03 µM
[2] = curve of first compound, second compound 0.0949 µM
[3] = curve of first compound, second compound 0.3 µM
[4] = curve of first compound, second compound 0.949 µM
[5] = curve of first compound, second compound 3 µM
[6] = second compound 0.03 µM, first compound 0.0316 µM
[7] = second compound 0.03 µM, first compound 0.1 µM
[8] = second compound 0.03 µM, first compound 0.316 µM
[9] = second compound 0.03 µM, first compound 1 µM
[10] = second compound 0.0949 µM, first compound 0.0316 µM
[11] = second compound 0.0949 µM, first compound 0.1 µM
[12] = second compound 0.0949 µM, first compound 0.316 µM
[13] = second compound 0.0949 µM, first compound 1 µM
[14] = second compound 0.3 µM, first compound 0.0316 µM
[15] = second compound 0.3 µM, first compound 0.1 µM
[16] = second compound 0.3 µM, first compound 0.316 µM
[17] = second compound 0.3 µM, first compound 1 µM
[18] = second compound 0.949 µM, first compound 0.0316 µM
[19] = second compound 0.949 µM, first compound 0.1 µM
[20] = second compound 0.949 µM, first compound 0.316 µM
[21] = second compound 0.949 µM, first compound 1 µM
[22] = second compound 3 µM, first compound 0.0316 µM
[23] = second compound 3 µM, first compound 0.1 µM
[24] = second compound 3 µM, first compound 0.316 µM
[25] = second compound 3 µM, first compound 1 µM
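Also: spheroids exposed to agents for 7 days.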
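For viability, T/C in this document: 100% = DMSO vehicle control wells.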

C=C(F)C(=O)N1CCN(c2nc(OCC3CCCN3C)nc3c2CCN(c2cccc4cccc(Cl)c24)C3)CC1CC#N (configuration not stated) + CCN1C(C(=O)NC23CCC(C(=O)O)(CC2)CC3)C(c2cccc(Cl)c2F)C2(C(=O)Nc3cc(Cl)ccc32)C12CCCCC2
4630 nM: IC50 [2]
1610 nM: IC50 [4]
4750 nM: IC50 [1]
active: viability, T/C (second compound 0.03 µM, first compound 10 µM) 0.44% | viability, T/C (second compound 0.0949 µM, first compound 10 µM) 0.22% | viability, T/C (second compound 0.3 µM, first compound 10 µM) 0.17% | viability, T/C (second compound 0.949 µM, first compound 10 µM) 0.22% | viability, T/C (second compound 3 µM, first compound 10 µM) 0.69%
4000 nM: IC50 [3]
< 31.6 nM: IC50 [5]
inactive: viability, T/C [6] 123% | viability, T/C [7] 107% | viability, T/C [8] 109% | viability, T/C [9] 99.8% | viability, T/C (second compound 0.03 µM, first compound 3.16 µM) 79.5% | viability, T/C [10] 92.7% | viability, T/C [11] 92.5% | viability, T/C [12] 103% | viability, T/C [13] 88.6% | viability, T/C (second compound 0.0949 µM, first compound 3.16 µM) 75.2% | viability, T/C [14] 76.3% | viability, T/C [15] 82.5% | viability, T/C [16] 86.1% | viability, T/C [17] 73.2% | viability, T/C (second compound 0.3 µM, first compound 3.16 µM) 63.7% | viability, T/C [18] 58.2% | viability, T/C [19] 57.5% | viability, T/C [20] 61.4% | viability, T/C [21] 64% | viability, T/C (second compound 0.949 µM, first compound 3.16 µM) 35.6% | viability, T/C [22] 38.4% | viability, T/C [23] 37.3% | viability, T/C [24] 38.8% | viability, T/C [25] 37% | viability, T/C (second compound 3 µM, first compound 3.16 µM) 23.6%

C=CC(=O)N1CCN(c2nc(=O)n(-c3c(C)ccnc3C(C)C)c3nc(-c4c(O)cccc4F)c(F)cc23)C(C)C1 (configuration not stated)
inactive: viability, T/C (compound 0.0316 µM) 105% and 89.2% and 107% | viability, T/C (compound 0.1 µM) 92.6% and 91.2% and 95.4% | viability, T/C (compound 0.316 µM) 92.2% and 96.7% and 90.9% | viability, T/C (compound 1 µM) 102% and 99.8% and 107% | viability, T/C (compound 3.16 µM) 97.3% and 94.7% and 112% | viability, T/C (compound 10 µM) 114% and 102% and 97.3%
> 10000 nM: IC50 (curve of compound)

COc1c(OCCCN2CCOCC2)ccc2c3n(c(=NC(=O)c4cnc(N)nc4)nc12)CCN3 + CCN1C(C(=O)NC23CCC(C(=O)O)(CC2)CC3)C(c2cccc(Cl)c2F)C2(C(=O)Nc3cc(Cl)ccc32)C12CCCCC2
< 3.16 nM: IC50 [4] | IC50 [5]
12.9 nM: IC50 [3]
25.8 nM: IC50 [1]
active: viability, T/C [8] 9.99% | viability, T/C [9] 6.65% | viability, T/C [11] 9.15% | viability, T/C [12] 4.16% | viability, T/C [13] 2.21% | viability, T/C [15] 2.26% | viability, T/C [16] 1.06% | viability, T/C [17] 0.54% | viability, T/C [18] 9.96% | viability, T/C [19] 0.92% | viability, T/C [20] 0.3% | viability, T/C [21] 0.28% | viability, T/C [22] 5.08% | viability, T/C [23] 0.52% | viability, T/C [24] 0.33% | viability, T/C [25] 0.31%
18.9 nM: IC50 [2]
inactive: viability, T/C (second compound 0.03 µM, first compound 0.00316 µM) 101% | viability, T/C (second compound 0.03 µM, first compound 0.01 µM) 75.2% | viability, T/C [6] 46.7% | viability, T/C [7] 18.1% | viability, T/C (second compound 0.0949 µM, first compound 0.00316 µM) 67.3% | viability, T/C (second compound 0.0949 µM, first compound 0.01 µM) 64% | viability, T/C [10] 38.8% | viability, T/C (second compound 0.3 µM, first compound 0.00316 µM) 58.1% | viability, T/C (second compound 0.3 µM, first compound 0.01 µM) 58.4% | viability, T/C [14] 21.4% | viability, T/C (second compound 0.949 µM, first compound 0.00316 µM) 49.5% | viability, T/C (second compound 0.949 µM, first compound 0.01 µM) 40.1% | viability, T/C (second compound 3 µM, first compound 0.00316 µM) 30.3% | viability, T/C (second compound 3 µM, first compound 0.01 µM) 24.8%

From PubChem BioAssay AID1963426 (Molecular Pharmacology Branch, DTP, NCI, 2024)
